Read-outs that look alike come from different tables or passages of the source.
Legend:
Human TROP2 protein [1] = molecular target: T1, Human TROP2 protein (Homo sapiens, UniProt P09758); assay: SPR dynamic affinity to human TROP2; assay type: binding; settings: read-out: K d (KD) to recombinant human TROP2
T1 sequence (P09758 27-323): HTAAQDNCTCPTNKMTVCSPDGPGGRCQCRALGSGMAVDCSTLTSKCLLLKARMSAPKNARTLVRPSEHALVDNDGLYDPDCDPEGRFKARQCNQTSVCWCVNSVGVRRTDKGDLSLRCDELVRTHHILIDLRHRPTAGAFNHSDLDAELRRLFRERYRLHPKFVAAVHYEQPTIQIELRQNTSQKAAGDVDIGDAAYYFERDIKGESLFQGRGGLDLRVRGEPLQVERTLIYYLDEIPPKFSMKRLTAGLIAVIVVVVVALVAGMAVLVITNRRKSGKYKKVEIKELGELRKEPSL
Protocol: Surface plasmon resonance (SPR) was an alternative method to evaluate dynamic affinity, in which human TROP2 protein was captured with goat anti-human IgG Ab immobilized onto a CM5 sensor chip (Biacore Inc., Raleigh, NC). Serial titrations of SKB264 or IMMU-132 ranging from 0.0823 to 2.22 nM and running buffer were individually injected over the surface, which was captured human TROP2 for an association phase of 120 s, followed by a 600-s dissociation time. Kinetic parameters were calculated using the BIA evaluation software with the average values of two datasets collected on separate days. Association (K a) and dissociation (K d) rate constant values were calculated by fitting analysis assuming a Langmuir binding model ([16]) and a stoichiometry of (1:1) to determine K D (equilibrium dissociation constant) values.

HCC1806 xenograft [2] = settings: for TGI: HCC1806 xenograft (Figure 7D)
Protocol: Female BALB/c nude mice (Charles River, Beijing, China) were inoculated with 2×10^6 HCC1806 cells in the right front flank. To evaluate in vivo efficacy of ADC, when the average tumor size reached about 120 mm^3, mice were randomized into 7 groups (n = 6 mice/group). The mice were treated with SKB264 or IMMU-132 at doses of 1, 3, and 10 mg/kg twice a week for six times via i.v. injection. To evaluate the PK-PD of ADC, when the average tumor size reached approximately 270 mm^3, mice were randomized into three groups (n = 5/time point). The mice received a single i.v. injection of control hIgG1, SKB264, or IMMU-132 (3 mg/kg), respectively. Blood samples (from five mice) were collected at 1 h, 4 h, 8 h, 24 h, 48 h, 96 h, 192 h, or 336 h post-dosing to detect the concentration of payload at each time point. The rate of TGI (n = 5 mice, measured at endpoint, i.e., 336 h) was determined to evaluate the antitumor efficacy of ADC. Body weight changes and mortality were also recorded to evaluate the tolerability of the testing items.

HCC1806 xenograft [3] = assay: PK-PD study, single dose, HCC1806 xenograft; assay type: in vivo, BALB/c nude mice
Protocol: Phoenix WinNonlin 8.1 was used to calculate the PK parameters in the non-compartment model, including t 1/2, T max, C max, AUC0-t, and AUC0-∞. […] The half maximal effective concentration (EC50) and half maximal inhibitory concentration (IC50) were calculated using a nonlinear regression model with sigmoidal fitting. The in vitro antitumor activities of drugs were evaluated by a two-tailed paired t-test.

[4] = in vitro stability in monkey plasma (payload release); assay type: in vitro ADME, cynomolgus monkeys; settings: cynomolgus monkey plasma, 50 μg/ml, 37°C, 48-h incubation
[5] = in vitro stability in human plasma (payload release); assay type: in vitro ADME; settings: 50 μg/ml, 37°C, 48-h incubation
[6] = system: triple-negative breast cancer; parameters: method as in PMID 28291390, PMID 25944802; settings: drug-resistant triple-negative breast cancer (TNBC) patients; cited from earlier work
[7] = parameters: method as in PMID 25494821; settings: cited from earlier work
[8] = parameters: method as in PMID 25944802; settings: tumor-bearing mice model; previous studies; cited from earlier work
monkey TROP2 = assay: ELISA binding to monkey TROP2
Protocol: (§1) An enzyme-linked immunosorbent assay (ELISA) was used to evaluate the binding and dynamics affinity. Human TROP2 protein (1 μg/ml) (Sino Biological Inc, Wayne, PA) was coated on a 96-well plate overnight at 4°C. The plate was then blocked by Super block reagent (ScyTek Inc. Logan UT) at room temperature for 1 h. Diluted SKB264, SKB264 mAb, or isotype control (human IgG1 antibody) was added for incubation at 37°C for 1 h. After washing, the diluted (1:10,000) goat anti-human IgG Fc-horseradish peroxidase (HRP) (Abcam, Waltham, MA) was added for further incubation for 45 min at 37°C. Finally, TMB solution was added for absorbance measurement at 450 nm using a SpectraMax Plus384 Microplate reader (Molecular Devices, USA).
(§2) Firstly, the affinities of SKB264 and SKB264 mAb to TROP2 of different species were evaluated by ELISA. […] Therefore, we performed the pharmacokinetic experiments in cynomolgus monkeys.

rat TROP2 protein = assay: ELISA binding to rat TROP2
Protocol: as §1, §2

mouse TROP2 protein = molecular target: T2, mouse TROP2 protein (Mus musculus, UniProt Q8BGV3); assay: ELISA binding to mouse TROP2
T2 sequence (Q8BGV3 25-317): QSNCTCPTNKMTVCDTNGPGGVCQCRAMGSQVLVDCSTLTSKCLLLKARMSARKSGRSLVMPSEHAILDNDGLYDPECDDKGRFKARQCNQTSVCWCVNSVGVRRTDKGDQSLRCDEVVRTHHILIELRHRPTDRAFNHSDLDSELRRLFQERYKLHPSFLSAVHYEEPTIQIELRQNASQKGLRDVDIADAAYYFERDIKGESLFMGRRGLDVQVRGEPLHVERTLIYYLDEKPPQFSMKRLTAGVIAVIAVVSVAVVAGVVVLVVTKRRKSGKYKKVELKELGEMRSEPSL
Protocol: as §1, §2

[9] = system: TROP2-positive cells HCC1806; assay: cell-level binding to HCC1806 by FACS; parameters: species or system human; settings: read-out: Antibody EC50 determination on HCC1806
Protocol: (§3) To examine whether the anti-TROP2 mAb plays a targeting role via specifically recognizing the highly expressed TROP2 on the surface of tumor cells, the following experiments were conducted ([17]).
(§4) Figure 2 In vitro activities of SKB264. (A) Binding to human TROP2 estimated by ELISA (duplicates, mean ± SEM). (B) SKB264 binding to HCC1806 and NCI-N87 estimated by FACS. (C) Internalization of SKB264 or SKB264 mAb in HCC1806 and NCI-N87 cells. (D) In vitro cell growth inhibitory activity (triplicates, mean ± SEM) in HCC1806, NCI-N87, BxPC-3, Calu-3, NCI-H23 (TROP2+), and NCI-H23 (parental) cells.

[10] = system: TROP2-positive cells NCI-N87; assay: cell-level binding to NCI-N87 by FACS; parameters: species or system human; settings: read-out: Antibody EC50 determination on NCI-N87
Protocol: as §3, §4

HCC1806 cells = assay: endocytosis (internalization) experiment in HCC1806; assay type: cell-based, human
Protocol: as §3, §4

NCI-N87 cells = assay: endocytosis (internalization) experiment in NCI-N87; assay type: cell-based, human
Protocol: as §3, §4

Human TROP2 protein [11] = molecular target: T1, Human TROP2 protein; assay: ELISA binding to human TROP2 protein; parameters: purchased Sino Biological Inc, Wayne, PA
Protocol: as §1

DNA topoisomerase I = molecular target: T3, DNA topoisomerase I (Homo sapiens, UniProt P11387); assay: topoisomerase I-mediated DNA relaxation assay (cell-free); assay type: biochemical; settings: read-out: DNA topoisomerase I inhibition (IC50)
T3 sequence (P11387 1-765): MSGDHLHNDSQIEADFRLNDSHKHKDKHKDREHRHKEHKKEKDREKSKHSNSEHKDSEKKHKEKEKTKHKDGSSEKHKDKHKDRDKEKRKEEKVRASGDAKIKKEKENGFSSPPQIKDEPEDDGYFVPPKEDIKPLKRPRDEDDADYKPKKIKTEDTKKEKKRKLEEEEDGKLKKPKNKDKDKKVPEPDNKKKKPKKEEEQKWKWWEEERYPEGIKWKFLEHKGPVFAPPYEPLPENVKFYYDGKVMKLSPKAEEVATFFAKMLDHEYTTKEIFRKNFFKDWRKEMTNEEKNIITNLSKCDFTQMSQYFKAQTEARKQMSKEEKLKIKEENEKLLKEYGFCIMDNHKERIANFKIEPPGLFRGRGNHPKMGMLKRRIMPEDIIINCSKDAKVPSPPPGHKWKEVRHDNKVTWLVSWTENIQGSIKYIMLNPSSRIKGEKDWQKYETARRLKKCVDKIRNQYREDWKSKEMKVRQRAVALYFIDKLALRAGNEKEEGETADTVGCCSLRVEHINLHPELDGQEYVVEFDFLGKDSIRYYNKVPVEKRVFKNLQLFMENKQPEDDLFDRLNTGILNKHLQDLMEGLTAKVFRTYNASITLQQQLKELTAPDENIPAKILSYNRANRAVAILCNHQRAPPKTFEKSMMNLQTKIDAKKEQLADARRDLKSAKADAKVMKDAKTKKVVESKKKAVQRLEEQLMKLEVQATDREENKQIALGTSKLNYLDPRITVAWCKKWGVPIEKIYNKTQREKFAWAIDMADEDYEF
Text: SKB264 is a TROP2-targeting ADC, which consists of a recombinant humanized anti-TROP2 antibody and a topoisomerase I inhibitor derived from Belotecan (KL610023), integrated together via a sulfonyl pyrimidine-CL2A-carbonate linker. The payload is conjugated with the antibody through irreversible nucleophilic aromatic substitution by tris (2-carboxyethyl) phosphine hydrochloride (TCEP HCl), a reducing agent that can reduce the interchain disulfide bounds. The drug-to-antibody ratio (DAR) of SKB264 was approximately 7.4, which was determined by the reversed-phase chromatography (RPC), and might be the theoretical maximum drug loading number for conventional interchain cysteine conjugation ( Figure 1B ). SKB264 was designed to release payload KL610023 after internalization by TROP2-expressing tumor cells. The inhibitory effect of KL610023 on topoisomerase I was almost similar to that of SN-38, as measured by a topoisomerase I-mediated DNA relaxation assay ( Figure 1C ).
Figure 1 Structure and characterization of SKB264. […] (B) The distribution of the conjugated drug determined by the reverse-phase chromatography analysis (L-0: Unconjugated light chain, L-1: Light chain conjugated with one payload, H-0: Unconjugated heavy chain, H-1: Heavy chain conjugated with one payload, H-2: Heavy chain conjugated with two payloads, H-3: Heavy chain conjugated with three payloads). […]

HCC1806 (TROP2+) = assay: cytotoxic assay (CellTiter-Glo, 72 h) HCC1806; assay type: cell-based, human; settings: HCC1806, payload comparison, Figure 7C, duplicates; read-out: IC50 inhibition of proliferation of HCC1806 cells
Protocol: Tumor cells were seeded on 96-well plates at the following concentrations: HCC1806 (3,000 cells per well), NCI-N87 (5,000 cells per well), BxPC-3 (2,000 cells per well), Calu-3 (8,000 cells per well), NCI-H23 (TROP2+, 3,000 cells per well), and NCI-H23 (parental, 3,000 cells per well). After overnight incubation, the diluted testing items were added respectively. After 72 h, cell viability was evaluated using a CellTiter-Glo Luminescent Cell Viability Assay (Promega Corp. Madison, WI), following the manufacturer’s instruction.

[12] = plasma, payload after single i.v. 3 mg/kg SKB264 (KL610023) or IMMU-132 (SN-38), HCC1806 tumor-bearing mice, mean, n = 5
[13] = tumor, payload after single i.v. 3 mg/kg SKB264 (KL610023) or IMMU-132 (SN-38), HCC1806 tumor-bearing mice, mean, n = 5

sacituzumab govitecan [IMMU-132]
Kd (Human TROP2 protein [1]): 0.293 nM | TGI (HCC1806 xenograft [2]; 1 mg/kg i.v. twice a week for six times): 48.12% | TGI (HCC1806 xenograft [2]; 3 mg/kg i.v. twice a week for six times): 70.64% | TGI (HCC1806 xenograft [2]; 10 mg/kg i.v. twice a week for six times): 153.27% | body weight of the experimental mice (HCC1806 xenograft [2]; HCC1806 xenograft, all treatment groups 1, 3, 10 mg/kg): no significant change | TGI (HCC1806 xenograft [3]; HCC1806 xenograft, single i.v. 3 mg/kg, after 13 days (336 h)): 21.05% | release rate of the payload [4]: ~100% | release rate of the payload [5]: ~100% | objective response rate (ORR) [6]: 33% | half-life in serum [7]: ~ 1 day | half-life [8]: 14 h

SKB264 mAb: humanized anti-TROP2 mAb with the same amino acid sequence as the antibody of IMMU-132
EC50 of the affinity with monkey TROP2 (monkey TROP2): 3.399 ng/mL | EC50 binding to rat TROP2 protein (rat TROP2 protein): > 5,000 ng/ml | EC50 binding to mouse TROP2 protein (mouse TROP2 protein): > 5,000 ng/ml | EC50 [9]: 16.1 nM | EC50 [10]: 8.09 nM | percentage of endocytosis (HCC1806 cells): increased over time | percentage of endocytosis (NCI-N87 cells): increased over time | EC50 determination on Human TROP2 (Human TROP2 protein [11]): 2.731 ng/mL

CCc1c2c(nc3ccc(O)cc13)-c1cc3c(c(=O)n1C2)COC(=O)[C@]3(O)CC [SN-38]
IC50 (DNA topoisomerase I): 1100 nM | IC50 (HCC1806 (TROP2+)): 2.61 nM | AUC0-∞ of payload (HCC1806 xenograft [3]; [12]): 22.17 ng·h/mL | AUClast of payload (HCC1806 xenograft [3]; [12]): 19.26 ng·h/mL | C max of payload (HCC1806 xenograft [3]; [12]): 1.32 ng/mL | t 1/2 of payload (HCC1806 xenograft [3]; [12]): 15.5 h | AUC0-∞ of payload (HCC1806 xenograft [3]; [13]): 448 ng·h/g | AUClast of payload (HCC1806 xenograft [3]; [13]): 410 ng·h/g | C max of payload (HCC1806 xenograft [3]; [13]): 4.5 ng/g | T max of payload (HCC1806 xenograft [3]; [13]): 24 h | t 1/2 of payload (HCC1806 xenograft [3]; [13]): 57.4 h
